As a reminder, the IC50 is the midpoint of a concentration-inhibition curve. A word on the inhibition: it is the change of the read-out against control, counted positive when it falls.

Here are results for six molecules from article PMC11451537, “P2X7 receptors exhibit at least three modes of allosteric antagonism” (Science Advances, 2024).

Residue numbers refer to the chain shown, from its start.

Common to all, as to format: cell-based
One experiment addresses T1, rP2X7-F103A (Rattus norvegicus, UniProt Q64663, F103A).
T1 sequence (Q64663 1-595 F103A): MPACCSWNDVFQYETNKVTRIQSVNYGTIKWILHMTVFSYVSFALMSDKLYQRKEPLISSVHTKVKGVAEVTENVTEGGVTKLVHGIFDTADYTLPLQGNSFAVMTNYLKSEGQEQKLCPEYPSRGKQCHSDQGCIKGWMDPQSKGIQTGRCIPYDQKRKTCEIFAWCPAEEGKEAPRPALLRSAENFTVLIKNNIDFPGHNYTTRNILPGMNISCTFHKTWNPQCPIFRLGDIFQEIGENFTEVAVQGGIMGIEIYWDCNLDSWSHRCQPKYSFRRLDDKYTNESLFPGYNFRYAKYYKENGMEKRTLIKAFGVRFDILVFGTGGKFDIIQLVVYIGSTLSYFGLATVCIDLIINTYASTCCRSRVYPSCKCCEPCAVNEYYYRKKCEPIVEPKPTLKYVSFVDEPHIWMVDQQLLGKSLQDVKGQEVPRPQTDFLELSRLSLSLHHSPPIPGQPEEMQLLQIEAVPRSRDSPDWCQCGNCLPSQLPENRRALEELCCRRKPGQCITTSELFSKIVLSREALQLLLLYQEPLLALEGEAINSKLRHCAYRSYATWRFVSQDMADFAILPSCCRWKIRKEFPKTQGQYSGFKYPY
Briefly: TEVC inhibition dose-response, rP2X7-F103A mutant. To be noted: for IC50: reduced expression and variable response to ATP, read-out: IC50 (inhibitory potency), F103A. From the text:
(§1) Structural determination of the full-length, wild-type rP2X7 was completed using a construct previously described containing no truncations or mutations ([16]). Furthermore, the rP2X7-WT construct used for electrophysiology experiments is unmodified full-length, wild-type rP2X7 with no green fluorescent protein (GFP), protease sites, or affinity tags present. The hP2X1-WT, hP2X2-WT, hP2X3-WT, hP2X4-WT, and hP2X7-WT constructs used for electrophysiology are similarly unmodified full-length, wild-type receptor constructs with no GFP, protease sites, or affinity tags present. Mutations to the rP2X7-WT construct used for electrophysiology experiments were made directly in the pcDNA3.1x plasmid. These constructs included the following: rP2X7-K297A, rP2X7-K297G, rP2X7-K297M, rP2X7-K297Q, rP2X7-K297V, rP2X7-Y298A, rP2X7-Y298G, rP2X7-Y298V, rP2X7-Y298L, rP2X7-R316A, rP2X7-R316G, rP2X7-R316Q, rP2X7-R316H, rP2X7-F88A, rP2X7-F103A, and rP2X7-Y295A.
(§2) To evaluate the inhibitory response of an antagonist for a dilution series, an initial excitatory signal was evoked at a subtype-specific concentration of ATP. Next, the antagonist was applied at a test concentration for 60 s and then coapplied at the same test concentration of the antagonist with the identical subtype-specific concentration of ATP. The antagonized signal was then normalized against the preceding excitatory signal evoked by ATP for each individual oocyte tested. The pre- and post-antagonist signals were evoked by 10 μM ATP for hP2X1, 10 μM ATP for hP2X2, 1 μM ATP for hP2X3, 50 μM ATP for hP2X4, and 100 μM ATP for P2X7. For the K297V mutation in rP2X7, pre- and post-antagonist signals were evoked by 300 μM ATP. Each dataset was then fit to a nonlinear regression named “[inhibitor] vs. response – Variable slope (four parameters)” in GraphPad Prism 9 to produce a sigmoidal curve and afford an IC50 value. Each singular condition was used to generate an average which is reported plus or minus its SD between three discrete trials.

The target in a further experiment is T2, rP2X7 (Rattus norvegicus, UniProt Q64663).
T2 sequence (Q64663 1-595): T1 sequence (Q64663 1-595 F103A) with A103F
Kind of experiment: TEVC inhibition dose-response (IC50), wild-type rP2X7 in Xenopus laevis oocytes. As to conditions: for IC100 (100% inhibitory concentration): calculated from IC50 values, concentration applied in the recovery experiments; for IC50: wild-type rP2X7, TEVC, 100 μM ATP, 60 s antagonist pre-application, mean ± SD, triplicate. Details: the rP2X7-WT construct used for electrophysiology experiments is unmodified full-length, wild-type rP2X7; expressed in transfected cells; host or cells: Xenopus laevis oocytes injected with mRNA made from pcDNA3.1x.
From the text: as §2

The next experiment concerns the target T3, rP2X7-K297V (Rattus norvegicus, UniProt Q64663, K297V).
T3 sequence (Q64663 1-595 K297V): T1 sequence (Q64663 1-595 F103A) with A103F, K297V
Kind of experiment: TEVC inhibition dose-response, rP2X7-K297V mutant. As to conditions: signals evoked by 300 μM ATP, read-out: IC50 (inhibitory potency), K297V.
From the text: as §1, §2

Regarding `Clc1cccc(-c2nnnn2Cc2cccnc2)c1Cl` [A438079], the IC50 was over 10000 nM on rP2X7-F103A, 550 ± 113 nM against rP2X7 and 110 ± 90 nM at rP2X7-K297V. The “IC100 (100% inhibitory concentration)” value at rP2X7 is 6.6 µM.
In the case of `Clc1cccc(-n2nnnc2NCc2ccccc2Oc2ccccn2)c1Cl` [A839977], the IC50 at rP2X7-F103A was over 1000 nM; on rP2X7, 116 ± 13 nM; at rP2X7-K297V, 3.2 ± 0.6 nM. Further, at rP2X7, the “IC100 (100% inhibitory concentration)” value is 1 µM.
On the same counts, the results for `O=C(NCC12CC3CC(CC(C3)C1)C2)c1cc(CCCNCCCO)ccc1Cl` [AZD9056] are over 10000 nM, 300 ± 100 nM, 12 ± 1 nM and 3 µM.
The matching figures for `CN1C(=O)CC[C@H]1C(=O)NCc1cccc(C(F)(F)F)c1Cl` [GSK1482160]: over 20000 nM, 3600 ± 500 nM, 1300 ± 400 nM and 81 µM.
Take `O=C(NCC1(N2CCN(c3ccccc3)CC2)CCOCC1)c1cccnc1Sc1ccccc1` [JNJ47965567]: at rP2X7-F103A (625 nM antagonist), the “inhibition at 625 nM, F103A” value is 50-80%. Also, the “IC100 (100% inhibitory concentration)” value on rP2X7 was 1.3 µM. Besides, the values for the IC50 against rP2X7 and at rP2X7-K297V were 22 ± 6 nM and 21 ± 6 nM, respectively.
For `O=S(=O)(O)c1ccc(N=C2C=CC(=C(c3ccc(Nc4ccc(S(=O)(=O)O)cc4)cc3)c3ccc(Nc4ccc(S(=O)(=O)O)cc4)cc3)C=C2)cc1` [methyl blue], the inhibition at 30 µM against rP2X7-F103A (30 µM antagonist) is 50 to 75%. On rP2X7, the “IC100 (100% inhibitory concentration)” value is 108 µM and the IC50 was determined as 4000 ± 1000 nM. In addition, the IC50 on rP2X7-K297V turned out to be 4000 ± 1000 nM.
